Measured values as given in patent US20240376097A1, “BCL-2 Inhibitor” (BeiGene Ltd., priority 2020, published 2024).

Legend:
[1] = target: recombinant human Bcl-2-G101V protein (Homo sapiens (Human), UniProt P10415, G101V); assay: Bcl-2-G101V TR-FRET Assay; assay type: binding; details: Bcl-2 G101V mutant, TR-FRET; read-out: Biochemical assay (IC50, nM) Bcl-2 G101V
Summary of the method: (§1)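 Displacement of ligand from recombinant human Bcl-2-G101V measured by TR-FRET (ex337 nm, em490/520 nm), inhibition derived from the 490/520 ratio across compound titrations. IC50 from four-parameter logistic fit.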

[2] = tested on: recombinant human Bcl-2-G101V protein; assay: Bcl-2-G101V TR-FRET Assay; assay type: binding; details: for Ratio of Bcl-2 G101V/WT: ratio of biochemical IC50 Bcl-2 G101V / Bcl-2 WT
Summary of the method: as §1

[3] = tested on: BCL-2 G101V knock-in cell line H96 (derive from RS4;11); assay: Bcl 2-G101V Knock-In RS4;11 Cell Proliferation Assay; assay type: cell-based; details: Homo sapiens, RS4-11, 48 h, RS4;11 Bcl-2 G101V knock-in clone H96, 48 hrs, CellTiter-GLO, read-out: Cellular proliferation assay (IC50, nM) RS4
Summary of the method: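 H96, a CRISPR-generated RS4;11 clone carrying BCL2-G101V knock-in (WES/RNA-seq validated), seeded 50,000 per well and exposed 48 h at 37 °C to 10-point dilutions topping at 1 or 10 μM. Viability by CellTiter-Glo luminescence; mean IC50.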

[4] = Metabolic Stability Study, liver microsome incubation (human); assay type: in vitro ADME; details: human liver microsomes 0.5 mg/mL, 1 μM compound, NADPH; for half-life at 1 μM: NA^# = very stable, beyond the detection limits, read-out: T1/2 (min) Human; for microsomal CLint at 1 μM: read-out: CLint (μL × min^−1 × mg^−1) Human
Procedure: (§2) Biological Example: Metabolic Stability Study
(§3) The metabolic stability of some compounds was evaluated by using the liver microsome incubation system in vitro. Briefly, the test compounds at 1 μM, were incubated with 0.5 mg/mL liver microsomes from different species (human, dog, rat and mouse) with an NADPH regenerating system at 37° C. Samples were quenched at three time points (0, 30, 60 min) with organic solvent containing internal standards, and the supernatant was analyzed for parent loss via LC-MS/MS. Midazolam was used as the positive control to validate the incubation system.
(§4) where Cprotein is the microsomal protein concentration in the incubation system.
(§5) The value of CLint and T1/2 of Example F132b in WO2019210818 and representative compounds of the disclosure were determined, and the results are shown in Table 5.

[5] = Metabolic Stability Study, liver microsome incubation (mouse); assay type: in vitro ADME; details: mouse liver microsomes 0.5 mg/mL, 1 μM compound, NADPH; for half-life at 1 μM: NA^# = very stable, beyond the detection limits, read-out: T1/2 (min) mouse; for microsomal CLint at 1 μM: read-out: CLint (μL × min^−1 × mg^−1) mouse
Procedure: as §2, §3, §4, §5

Row | Compound | IC50 [1] | Ratio of Bcl-2 G101V/WT [2] | IC50 [3] | half-life at 1 μM [4] | microsomal CLint at 1 μM [4] | half-life at 1 μM [5] | microsomal CLint at 1 μM [5] | ratio of IC50 of Bcl-2 G101V/Bcl-2 wt, compared with Example F132b in WO2019210828 and ABT-199 (venetoclax) ([2]; comparison in words)
1 | COc1ccc(CN2CCN(C3CC4(CCN(c5ccc(C(=O)NS(=O)(=O)c6ccc(NCC7(F)CCOCC7)c([N+](=O)[O-])c6)c(Oc6cnc7[nH]ccc7c6)c5)CC4)C3)[C@H](c3ccccc3C(C)C)C2)cc1 (single isomer, unassigned) [Example 32, (R or S)-2-((1H-pyrrolo[2,3-b]pyridin-5-yl)oxy)-N-((4-(((4-fluorotetrahydro-2H-pyran-4-yl)methyl)amino)-3-nitrophenyl)sulfonyl)-4-(2-(2-(2-isopropylphenyl)-4-(4-methoxybenzyl)piperazin-1-yl)-7-azaspiro[3.5]nonan-7-yl)benzamide] | 0.28 nM | 2.9 | 0.96 nM | 533 min | 2.6 µL/min/mg | 202 min | 6.8 µL/min/mg | 
2 | CC(C)c1ccccc1[C@@H]1CN(Cc2ccc(F)c(F)c2)CCN1C1CC2(CCN(c3ccc(C(=O)NS(=O)(=O)c4ccc(NC[C@H]5CC[C@](C)(O)CC5)c([N+](=O)[O-])c4)c(Oc4cnc5[nH]ccc5c4)c3)CC2)C1 (single isomer, unassigned) [Example 52a, 2-((1H-pyrrolo[2,3-b]pyridin-5-yl)oxy)-4-(2-((R or S)-4-(3,4-difluorobenzyl)-2-(2-isopropylphenyl)piperazin-1-yl)-7-azaspiro[3.5]nonan-7-yl)-N-((4-((((1r,4r)-4-hydroxy-4-methylcyclohexyl)methyl)amino)-3-nitrophenyl)sulfonyl)benzamide] | 0.68 nM | 4.2 | 1.67 nM |  |  |  |  | 
3 | COc1ccc(CN2CCN(C3CC4(CCN(c5ccc(C(=O)NS(=O)(=O)c6ccc(NC[C@H]7CC[C@](C)(O)CC7)c([N+](=O)[O-])c6)c(Oc6cnc7[nH]ccc7c6)c5)CC4)C3)[C@H](c3ccccc3C(C)C)C2)cc1 [Example 19a, 2-((1H-pyrrolo[2,3-b]pyridin-5-yl)oxy)-N-((4-((((1r,4r)-4-hydroxy-4-methylcyclohexyl)methyl)amino)-3-nitrophenyl)sulfonyl)-4-(2-((R)-2-(2-isopropylphenyl)-4-(4-methoxybenzyl)piperazin-1-yl)-7-azaspiro[3.5]nonan-7-yl)benzamide] | 0.18 nM | 3.2 | 0.57 nM |  | < 1 µL/min/mg | 346 min | 4 µL/min/mg | much lower
4 | CC(C)c1ccccc1C1CN(Cc2ccc(F)cc2)CCN1C1CC2(CCN(c3ccc(C(=O)NS(=O)(=O)c4ccc(NC[C@H]5CC[C@](C)(O)CC5)c([N+](=O)[O-])c4)c(Oc4cnc5[nH]ccc5c4)c3)CC2)C1 (stereo partly drawn) [Example 28, 2-((1H-pyrrolo[2,3-b]pyridin-5-yl)oxy)-4-(2-(4-(4-fluorobenzyl)-2-(2-isopropylphenyl)piperazin-1-yl)-7-azaspiro[3.5]nonan-7-yl)-N-((4-((((1r,4r)-4-hydroxy-4-methylcyclohexyl)methyl)amino)-3-nitrophenyl)sulfonyl)benzamide] | 0.82 nM | 3.6 | 2.69 nM | 135 min | 10.3 µL/min/mg | 200 min | 6.9 µL/min/mg | 
5 | CC(C)c1ccccc1C1CN(Cc2ccc(Cl)cc2)CCN1C1CC2(CCN(c3ccc(C(=O)NS(=O)(=O)c4ccc(NC[C@H]5CC[C@](C)(O)CC5)c([N+](=O)[O-])c4)c(Oc4cnc5[nH]ccc5c4)c3)CC2)C1 (stereo partly drawn) [Example 29, 2-((1H-pyrrolo[2,3-b]pyridin-5-yl)oxy)-4-(2-(4-(4-chlorobenzyl)-2-(2-isopropylphenyl)piperazin-1-yl)-7-azaspiro[3.5]nonan-7-yl)-N-((4-((((1r,4r)-4-hydroxy-4-methylcyclohexyl)methyl)amino)-3-nitrophenyl)sulfonyl)benzamide] | 1.5 nM | 5.2 | 2.95 nM | 245 min | 5.6 µL/min/mg | 2360 min | 0.6 µL/min/mg | 
6 | CC(C)c1ccccc1C1CN(Cc2ccc(C(F)(F)F)cc2)CCN1C1CC2(CCN(c3ccc(C(=O)NS(=O)(=O)c4ccc(NC[C@H]5CC[C@](C)(O)CC5)c([N+](=O)[O-])c4)c(Oc4cnc5[nH]ccc5c4)c3)CC2)C1 (stereo partly drawn) [Example 41, 2-((1H-pyrrolo[2,3-b]pyridin-5-yl)oxy)-N-((4-((((1r,4r)-4-hydroxy-4-methylcyclohexyl)methyl)amino)-3-nitrophenyl)sulfonyl)-4-(2-(2-(2-isopropylphenyl)-4-(4-(trifluoromethyl)benzyl)piperazin-1-yl)-7-azaspiro[3.5]nonan-7-yl) benzamide] | 3.8 nM | 4.6 | 7.2 nM | 997 min | 1.4 µL/min/mg | 683 min | 2 µL/min/mg | 
7 | CC(C)c1ccccc1C1CN(Cc2cccc(F)c2)CCN1C1CC2(CCN(c3ccc(C(=O)NS(=O)(=O)c4ccc(NC[C@H]5CC[C@](C)(O)CC5)c([N+](=O)[O-])c4)c(Oc4cnc5[nH]ccc5c4)c3)CC2)C1 (stereo partly drawn) [Example 43, 2-((1H-pyrrolo[2,3-b]pyridin-5-yl)oxy)-4-(2-(4-(3-fluorobenzyl)-2-(2-isopropylphenyl)piperazin-1-yl)-7-azaspiro[3.5]nonan-7-yl)-N-((4-((((1r,4r)-4-hydroxy-4-methylcyclohexyl)methyl)amino)-3-nitrophenyl)sulfonyl)benzamide] | 1.3 nM | 4.2 | 3.27 nM | 108 min | 12.8 µL/min/mg | 193 min | 7.1 µL/min/mg | 
8 | CC(C)c1ccccc1C1CN(Cc2ccccc2F)CCN1C1CC2(CCN(c3ccc(C(=O)NS(=O)(=O)c4ccc(NC[C@H]5CC[C@](C)(O)CC5)c([N+](=O)[O-])c4)c(Oc4cnc5[nH]ccc5c4)c3)CC2)C1 (stereo partly drawn) [Example 46, 2-((1H-pyrrolo[2,3-b]pyridin-5-yl)oxy)-4-(2-(4-(2-fluorobenzyl)-2-(2-isopropylphenyl)piperazin-1-yl)-7-azaspiro[3.5]nonan-7-yl)-N-((4-((((1r,4r)-4-hydroxy-4-methylcyclohexyl)methyl)amino)-3-nitrophenyl)sulfonyl)benzamide] | 2.7 nM | 7.9 | 10.2 nM | 153 min | 9.1 µL/min/mg | 131 min | 10.5 µL/min/mg | 
9 | COc1ccc(CN2CCN(C3CC4(CCN(c5ccc(C(=O)NS(=O)(=O)c6ccc(NC[C@H]7CC[C@](C)(O)CC7)c([N+](=O)[O-])c6)c(Oc6cnc7[nH]ccc7c6)c5)CC4)C3)C(c3ccccc3C(C)C)C2)c(OC)c1 (stereo partly drawn) [Example 48] | 0.33 nM | 4.6 | 1.9 nM | 256 min | 5.4 µL/min/mg | 323 min | 4.3 µL/min/mg | 
10 | CC(C)c1ccccc1C1CN(Cc2cc(F)cc(F)c2)CCN1C1CC2(CCN(c3ccc(C(=O)NS(=O)(=O)c4ccc(NC[C@H]5CC[C@](C)(O)CC5)c([N+](=O)[O-])c4)c(Oc4cnc5[nH]ccc5c4)c3)CC2)C1 (stereo partly drawn) [Example 51, 2-((1H-pyrrolo[2,3-b]pyridin-5-yl)oxy)-4-(2-(4-(3,5-difluorobenzyl)-2-(2-isopropylphenyl)piperazin-1-yl)-7-azaspiro[3.5]nonan-7-yl)-N-((4-((((1r,4r)-4-hydroxy-4-methylcyclohexyl)methyl)amino)-3-nitrophenyl)sulfonyl)benzamide] | 1.6 nM | 3.8 | 4 nM | 234 min | 5.9 µL/min/mg | 306 min | 4.5 µL/min/mg | 
11 | CC(C)c1ccccc1C1CN(Cc2ccc(F)c(F)c2)CCN1C1CC2(CCN(c3ccc(C(=O)NS(=O)(=O)c4ccc(NC[C@H]5CC[C@](C)(O)CC5)c([N+](=O)[O-])c4)c(Oc4cnc5[nH]ccc5c4)c3)CC2)C1 (stereo partly drawn) [Example 52, 2-((1H-pyrrolo[2,3-b]pyridin-5-yl)oxy)-4-(2-(4-(3,4-difluorobenzyl)-2-(2-isopropylphenyl)piperazin-1-yl)-7-azaspiro[3.5]nonan-7-yl)-N-((4-((((1r,4r)-4-hydroxy-4-methylcyclohexyl)methyl)amino)-3-nitrophenyl)sulfonyl)benzamide] | 0.73 nM | 3.0 | 2.7 nM | 145 min | 9.5 µL/min/mg |  | < 1 µL/min/mg | 
